Like-named read-outs stand apart in the source and are kept apart here.
Legend:
[1] = test system: Amphetamine Induced Rotation; experiment: Amphetamine Induced Rotation antagonism (S. Nigra Lesioned Rats) / Rotation Antagonism; assay type: in vivo, rat; settings: for ED50: Rat, PO; for Amphetamine Induced Rotation % Antagonism: S. Nigra Lesioned Rats, 40 mg/kg, oral
[2] = test system: Confinement Motor Activity; experiment: Confinement Motor Activity; assay type: in vivo; settings: Rat, PO, read-out: Confinement Motor Activity DD50
[3] = test system: Dopamine Turnover-Brain Limbic and Remainder; experiment: Dopamine Turnover-Brain, Limbic and Remainder; assay type: in vivo; settings: Rat
[4] = test system: avoidance behavior; experiment: Discrete Avoidance - Rats (avoidance block / escape block); assay type: in vivo, rat; settings: for Discrete Avoidance, % Block: Rats, 40 mg/kg, oral; for duration of neuroleptic effect (in words): discrete avoidance procedure
Source text: For example, by one procedure, trained rats are placed in experimental chambers equipped with a response lever, a steel grid floor for delivery of electric shock and a loudspeaker for presentation of auditory stimuli. […] The rats can terminate a trial at any point by depression of the response lever. A response during the initial fifteen-second warning tone ends the trial before shock delivery and is considered an avoidance response, while a response occurring during shock delivery is an escape response. Trials are presented every two minutes during a one-hour test session (30 trials per session). […] Compounds are administered to a minimum of three to four rats at each dose level over a range of doses. Rats receive vehicle alone, during control sessions prior to drug administration. Each rat is tested daily or weekly, after a single drug administration, until avoidance behavior returns to pre-drug baseline levels. The session is divided into three consecutive twenty minute (ten trial) segments. Response counts are summed over all subjects at a given dose within each segment. […] This number is expressed as a percentage of the total trials within the segment. […] The lowest dose which produced a 20% block of escape responding (EBD 20) is read from a graphic dose-effect plot. In obtaining these values, percent effect is plotted against the log dose.

[5] = test system: Apomorphine Induced Emesis; experiment: Apomorphine Induced Emesis antagonism (Dogs); assay type: in vivo, dog; settings: for ED50: Canis lupus familiaris, Dog, SC, read-out: Anti-Apomorphine Emesis ED50; for Apomorphine Induced Emesis % Antagonism: Dogs, 5 mg/kg, subcutaneous
[6] = test system: Dopamine Turnover-Brain Caudate; experiment: Dopamine Turnover-Brain, Caudate; assay type: in vivo; settings: Rat
[7] = test system: Continuous Avoidance; experiment: Continuous Avoidance (Squirrel Monkeys); assay type: in vivo, squirrel monkey; settings: for minimal effective dose: Primates, Squirrel Monkey, PO, read-out: Continuous Avoidance MED Shocks; for Continuous Avoidance, % Decrease of Responding: Squirrel Monkeys, 5 mg/kg, oral
[8] = test system: Prolactin Secretion; experiment: Prolactin Secretion (in-vitro); assay type: cell-based; settings: Rat, read-out: Prolactin Secretion ID50
[9] = test system: Pole-Climb Avoidance; experiment: Pole-Climb Avoidance, % Block; assay type: in vivo, rat; settings: Rats, 40 mg/kg, oral
[10] = test system: revertant colonies; experiment: Ames procedure (mutagenicity)
[11] = target: T1, Dopamine Adenylate Cyclase (Rattus norvegicus, UniProt P18901); experiment: biochemical; settings: in-vitro, read-out: Dopamine Adenylate Cyclase Inhibition-Limbic IC50
T1 construct: from tissue; host or cells: limbic brain tissue

[12] = test system: Continuous Avoidance; experiment: Continuous Avoidance, % Decrease of Responding (Rats); assay type: in vivo, rat; settings: 40 mg/kg, oral
[13] = target: T2, 3H--Spiroperidol Binding-Caudate (Rattus norvegicus, UniProt P61169); experiment: biochemical
T2 construct: from tissue; host or cells: caudate (brain)

[14] = Acute toxicity (LD50) in mice after a single dose; settings: mouse, in vivo; for LD50 at 168 h: 7 days
[15] = test system: Serum Prolactin; experiment: Serum Prolactin Levels (Rats); assay type: in vivo, rat; settings: 15 mg/kg, oral

T1 sequence (P18901 whole entry): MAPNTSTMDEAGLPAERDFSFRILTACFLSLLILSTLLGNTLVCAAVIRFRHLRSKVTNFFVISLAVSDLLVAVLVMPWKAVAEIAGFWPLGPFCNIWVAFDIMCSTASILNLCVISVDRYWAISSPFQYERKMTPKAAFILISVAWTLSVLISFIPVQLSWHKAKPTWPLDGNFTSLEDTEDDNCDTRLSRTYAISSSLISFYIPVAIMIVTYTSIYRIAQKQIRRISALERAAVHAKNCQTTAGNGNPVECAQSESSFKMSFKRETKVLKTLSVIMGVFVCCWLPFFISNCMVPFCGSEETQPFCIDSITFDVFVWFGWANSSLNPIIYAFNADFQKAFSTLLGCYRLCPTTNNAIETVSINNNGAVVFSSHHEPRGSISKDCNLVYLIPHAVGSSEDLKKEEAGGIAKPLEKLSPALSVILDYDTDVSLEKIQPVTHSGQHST
T2 sequence (P61169 whole entry): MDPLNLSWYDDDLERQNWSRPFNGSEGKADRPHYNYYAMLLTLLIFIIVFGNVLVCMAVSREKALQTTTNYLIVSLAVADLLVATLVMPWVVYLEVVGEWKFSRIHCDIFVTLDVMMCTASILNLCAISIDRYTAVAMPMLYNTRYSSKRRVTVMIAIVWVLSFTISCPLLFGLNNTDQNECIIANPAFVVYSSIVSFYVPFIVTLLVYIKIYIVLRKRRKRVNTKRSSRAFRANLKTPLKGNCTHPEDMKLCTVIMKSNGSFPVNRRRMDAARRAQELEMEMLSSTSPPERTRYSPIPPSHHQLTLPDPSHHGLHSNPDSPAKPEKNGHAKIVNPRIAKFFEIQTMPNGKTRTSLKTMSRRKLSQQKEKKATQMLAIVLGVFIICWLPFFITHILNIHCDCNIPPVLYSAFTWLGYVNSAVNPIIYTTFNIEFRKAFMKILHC

CN(C)CCCN1c2ccccc2Sc2ccc(Cl)cc21 [Chlorpromazine, chlorpromazine, reference compound]
ED50 ([1]; 1 Hour Post-Drug): 20.5 mg/kg
ED50 ([2]; 1 Hour Post-Drug): 4.6 mg/kg
Dopamine Turnover-Brain, Limbic and Remainder ([3]; 10 mg/kg IP, 1 Hour Post-Drug): Signif. .uparw.
ED50 ([4]; Rattus norvegicus, po, 1 h, read-out: Discrete Avoidance ABD50): 5 mg/kg
ED50 ([5]; 1 Hour Post-Drug): 1.4 mg/kg
Dopamine Turnover-Brain, Caudate ([6]; 10 mg/kg IP, 1 Hour Post-Drug): Signif. .uparw.
minimal effective dose ([7]; 1 Hour Post-Drug): 2 mg/kg
IC50 [8]: 130 nM

CC(C)NC[C@H](O)COc1ccc(OCCN2CCN(CCCN3c4ccccc4Sc4ccc(Cl)cc43)CC2)cc1.Cl.Cl.Cl [Compound A, (S)-1-(1-methylethylamino)-3-[4-[2-[4-[3-(2-chloro-10H-phenothiazin-10-yl)propyl]piperazine-1-yl]ethoxy]phenoxy]-2-propanol trihydrochloride]
Pole-Climb Avoidance, % Block ([9]; 1-4 hours): 30%
Pole-Climb Avoidance, % Block ([9]; 1 week): 50%
Pole-Climb Avoidance, % Block ([9]; 2 weeks): 44%
Pole-Climb Avoidance, % Block ([9]; 3 weeks): 11%
ED50 ([1]; 168 h, 7 Days Post-Drug): < 15 mg/kg
Amphetamine Induced Rotation % Antagonism ([1]; 1-4 hours): 14%
Amphetamine Induced Rotation % Antagonism ([1]; 1 week): 97%
Amphetamine Induced Rotation % Antagonism ([1]; 2 weeks): 95%
Amphetamine Induced Rotation % Antagonism ([1]; 3 weeks): 87%
Amphetamine Induced Rotation % Antagonism ([1]; 4 weeks): 87%
Amphetamine Induced Rotation % Antagonism ([1]; 5 weeks): 62%
Amphetamine Induced Rotation % Antagonism ([1]; 6 weeks): 28%
Amphetamine Induced Rotation % Antagonism ([1]; 7 weeks): 4%
revertant colonies (Ames) [10]: increased revertant colonies at the highest concentration tested
ED50 ([2]; 168 h, 7 Days Post-Drug): 19.6 mg/kg
Dopamine Turnover-Brain, Limbic and Remainder ([3]; 40 mg/kg PO, 7 Days Post-Drug): Not signif.
Duration of Sig. Activity ([4]; 40 mg/kg po): 8 weeks
Time of Peak Effect ([4]; 40 mg/kg po): 2 to 10 days
ED50 ([4]; 168 h, Rat, PO, 7 Days Post-Drug, read-out: Discrete Avoidance ABD50): 19 mg/kg
EBD20/ABD50 Ratio ([4]; Rat, PO, 7 Days Post-Drug): > 2.1
Discrete Avoidance, % Block ([4]; single administration, 1-4 hours): 40%
Discrete Avoidance, % Block ([4]; 1 week): 84%
Discrete Avoidance, % Block ([4]; 2-4 hours): 78%
Discrete Avoidance, % Block ([4]; 2 weeks): 80%
Discrete Avoidance, % Block ([4]; 3 weeks): 84%
Discrete Avoidance, % Block ([4]; 4 weeks): 82%
Discrete Avoidance, % Block ([4]; 5 weeks): 56%
Discrete Avoidance, % Block ([4]; 6 weeks): 50%
Discrete Avoidance, % Block ([4]; 7 weeks): 31%
Discrete Avoidance, % Block ([4]; 8 weeks): 30%
inhibition in vivo at 40 mg/kg ([4]; Rattus norvegicus, 1 h, 40 mg/kg po, 60 min. post-drug, read-out: Percentage Block of Avoidance, 60 min. post-drug): 40%
ED50 ([4]; Rattus norvegicus, po, 7-10 days after administration, read-out: ABD50): 13.5 mg/kg
inhibition in vivo at 40 mg/kg ([4]; Rattus norvegicus, 40 mg/kg po, 24 hrs. post-drug, read-out: Percentage Block of Avoidance, 24 hrs. post-drug): 77%
inhibition in vivo at 40 mg/kg ([4]; Rattus norvegicus, 40 mg/kg po, at the indicated duration, read-out: Avoidance block at Duration of Sig. Activity (AB)): 30%
inhibition in vivo at 40 mg/kg ([4]; Rattus norvegicus, 40 mg/kg po, at time of peak effect, read-out: Avoidance block at Time of Peak Effect (AB)): 90%
duration of neuroleptic effect (in words) [4]: several weeks
time of maximum neuroleptic activity after administration ([4]; p.o.): 7 to 10 days
IC50 [11]: 500 nM
ED50 ([5]; 168 h, 7 Days Post-Drug): < 5 mg/kg
Apomorphine Induced Emesis % Antagonism ([5]; 1-4 hours): 93%
Apomorphine Induced Emesis % Antagonism ([5]; 1 week): 100%
Apomorphine Induced Emesis % Antagonism ([5]; 2-4 hours): 100%
Apomorphine Induced Emesis % Antagonism ([5]; 2 weeks): 100%
Apomorphine Induced Emesis % Antagonism ([5]; 3 weeks): 100%
Apomorphine Induced Emesis % Antagonism ([5]; 4 weeks): 100%
Apomorphine Induced Emesis % Antagonism ([5]; 5 weeks): 100%
Apomorphine Induced Emesis % Antagonism ([5]; 6 weeks): 100%
Apomorphine Induced Emesis % Antagonism ([5]; 7 weeks): 56%
Apomorphine Induced Emesis % Antagonism ([5]; 8 weeks): 40%
Continuous Avoidance, % Decrease of Responding ([12]; 1-4 hours): 0%
Continuous Avoidance, % Decrease of Responding ([12]; 1 week): 97%
Continuous Avoidance, % Decrease of Responding ([12]; 2-4 hours): 59%
Continuous Avoidance, % Decrease of Responding ([12]; 2 weeks): 96%
Continuous Avoidance, % Decrease of Responding ([12]; 3 weeks): 93%
Continuous Avoidance, % Decrease of Responding ([12]; 4 weeks): 84%
Continuous Avoidance, % Decrease of Responding ([12]; 5 weeks): 82%
Continuous Avoidance, % Decrease of Responding ([12]; 6 weeks): 55%
Continuous Avoidance, % Decrease of Responding ([12]; 7 weeks): 48%
Continuous Avoidance, % Decrease of Responding ([12]; 8 weeks): 32%
Dopamine Turnover-Brain, Caudate ([6]; 40 mg/kg PO, 7 Days Post-Drug): Signif. .uparw.
minimal effective dose ([7]; 168 h, 7 Days Post-Drug): < 5 mg/kg
Continuous Avoidance, % Decrease of Responding ([7]; 1-4 hours): 0%
Continuous Avoidance, % Decrease of Responding ([7]; 1 week): 35%
Continuous Avoidance, % Decrease of Responding ([7]; 2-4 hours): 15%
Continuous Avoidance, % Decrease of Responding ([7]; 2 weeks): 37%
Continuous Avoidance, % Decrease of Responding ([7]; 3 weeks): 24%
IC50 [13]: 1.8 nM
LD50 at 24 h ([14]; ip): 77.5 mg/kg
LD50 at 168 h ([14]; po): 45 mg/kg
Serum Prolactin Levels % Increase ([15]; 1-4 hours): 215%
Serum Prolactin Levels % Increase ([15]; 1 week): 525%
Serum Prolactin Levels % Increase ([15]; 2-4 hours): 97%
Serum Prolactin Levels % Increase ([15]; 3 weeks): 251%
Serum Prolactin Levels % Increase ([15]; 4 weeks): 56%
IC50 [8]: 15 nM

CC(C)Nc1ccc(OCCN2CCN(CCCN3c4ccccc4Sc4ccc(Cl)cc43)CC2)cc1.O=C(O)/C=C\C(=O)O [Compound B, N-[4-[2-[4-[3-(2-chloro-10H-phenothiazin-10-yl)propyl]-1-piperazinyl]ethoxy]phenyl]-α-methylethaneamine (Z)-2-butenedioate]
mutogenic effects (conclusion) [10]: free of mutogenic effects
revertant colonies (Ames) [10]: no increase in revertant colonies
Duration of Sig. Activity ([4]; 30 mg/kg po): 3 days
Time of Peak Effect ([4]; 30 mg/kg po): 0.0417 days
inhibition in vivo at 30 mg/kg ([4]; Rattus norvegicus, 1 h, 30 mg/kg po, 60 min. post-drug, read-out: Percentage Block of Avoidance, 60 min. post-drug): 100%
ED50 ([4]; Rattus norvegicus, po, 1 h, p.o., 60 minutes pretreatment, day of administration, read-out: ABD50): 8.7 mg/kg
inhibition in vivo at 30 mg/kg ([4]; Rattus norvegicus, 30 mg/kg po, 24 hrs. post-drug, read-out: Percentage Block of Avoidance, 24 hrs. post-drug): 70%
inhibition in vivo at 30 mg/kg ([4]; Rattus norvegicus, 30 mg/kg po, at the indicated duration, read-out: Avoidance block at Duration of Sig. Activity (AB)): 43%
inhibition in vivo at 30 mg/kg ([4]; Rattus norvegicus, 30 mg/kg po, at time of peak effect, read-out: Avoidance block at Time of Peak Effect (AB)): 100%
duration of neuroleptic effect (in words) [4]: several days
time of maximum neuroleptic activity (in words) ([4]; p.o.): on the day of administration
LD50 at 168 h ([14]; ip): 230 mg/kg
LD50 at 24 h ([14]; po): > 1000 mg/kg
LD50 at 168 h ([14]; po): 248 mg/kg

From patent publication US4471116A, “Substituted (10H-phenothiazin-10-L)-propyl-1-piperazines” (Hoffmann-La Roche Inc., priority 1982, dated 1984)
